# Measurements published in ChEMBL document CHEMBL2203185, “Development of sub-nanomolar dipeptidic ligands of neuropeptide FF receptors” (Bioorg Med Chem Lett, 2012).
# pKi: −log10 of the molar value. Non-standard residues stand in square brackets, D forms with d. Residues, ends and D or L forms follow the SMILES beside them. Inp = O=C(O)C1CCNCC1
# Key:
# Type in all cases: cell-based
# [1] = target: T1, Neuropeptide FF receptor 2 (Homo sapiens, UniProt Q9Y5X5); assay: Displacement of [3H]FFRF-NH2 from human flag-tagged NPFF2 receptor expressed in CHO cells by scintillation counting
# T1 sequence (Q9Y5X5 whole entry): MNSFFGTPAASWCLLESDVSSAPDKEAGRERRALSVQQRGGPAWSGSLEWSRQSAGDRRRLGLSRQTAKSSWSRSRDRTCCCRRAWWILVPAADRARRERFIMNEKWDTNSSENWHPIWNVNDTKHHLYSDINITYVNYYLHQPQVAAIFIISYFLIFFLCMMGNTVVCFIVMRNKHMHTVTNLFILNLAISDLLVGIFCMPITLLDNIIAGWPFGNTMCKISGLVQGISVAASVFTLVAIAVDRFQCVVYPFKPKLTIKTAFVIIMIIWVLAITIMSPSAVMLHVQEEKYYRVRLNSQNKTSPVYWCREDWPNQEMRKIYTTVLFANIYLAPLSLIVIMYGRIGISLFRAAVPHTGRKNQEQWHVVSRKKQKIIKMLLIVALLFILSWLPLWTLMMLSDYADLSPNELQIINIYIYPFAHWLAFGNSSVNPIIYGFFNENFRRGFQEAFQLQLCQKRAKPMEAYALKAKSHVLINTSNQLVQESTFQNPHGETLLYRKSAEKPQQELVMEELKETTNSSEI
# [2] = target: T2, Neuropeptide FF receptor 1 (Homo sapiens, UniProt Q9GZQ6); assay: Displacement of [3H]FFRF-NH2 from human flag-tagged NPFF1 receptor expressed in CHO cells by scintillation counting
# T2 sequence (Q9GZQ6 whole entry): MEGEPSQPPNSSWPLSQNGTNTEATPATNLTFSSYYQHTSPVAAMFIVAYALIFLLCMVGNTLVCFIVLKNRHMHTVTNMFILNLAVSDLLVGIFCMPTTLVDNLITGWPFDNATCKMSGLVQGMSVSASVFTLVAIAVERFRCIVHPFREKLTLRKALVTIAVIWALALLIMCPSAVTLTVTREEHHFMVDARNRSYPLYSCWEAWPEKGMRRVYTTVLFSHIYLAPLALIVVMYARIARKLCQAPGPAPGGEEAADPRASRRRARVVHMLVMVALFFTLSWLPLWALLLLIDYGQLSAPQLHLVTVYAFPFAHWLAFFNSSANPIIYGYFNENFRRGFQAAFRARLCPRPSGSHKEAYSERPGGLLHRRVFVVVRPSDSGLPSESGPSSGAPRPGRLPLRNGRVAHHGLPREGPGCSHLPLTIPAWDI
# [3] = target: T2, Neuropeptide FF receptor 1; assay: Displacement of [3H]FFRF-NH2 from human flag-tagged NPFF1 receptor expressed in CHO cells at 500 nM by scintillation counting
# [4] = target: T1, Neuropeptide FF receptor 2; assay: Displacement of [3H]FFRF-NH2 from human flag-tagged NPFF2 receptor expressed in CHO cells at 500 nM by scintillation counting
# [5] = target: T2, Neuropeptide FF receptor 1; assay: Displacement of [3H]FFRF-NH2 from human flag-tagged NPFF1 receptor expressed in CHO cells at 5 uM by scintillation counting
# [6] = target: T1, Neuropeptide FF receptor 2; assay: Displacement of [3H]FFRF-NH2 from human flag-tagged NPFF2 receptor expressed in CHO cells at 5 uM by scintillation counting
pKi [1],pKi [2],inhibition [3] [%],inhibition [4] [%],inhibition [5] [%],inhibition [6] [%],SMILES
6.17,6.96,,,,,NC(=O)[C@@H](Cc1ccccc1)NC(=O)[C@@H](CCCN=C(N)N)NC(=O)c1cccc(-c2ccccc2)c1
7.04,7.64,66,32,99,92,N=C(N)NCCC[C@H](NC(=O)c1ccccc1)C(=O)N[C@@H](Cc1ccccc1)C(N)=O
6.87,6.42,41,38,89,70,N=C(N)NCCC[C@H](NC(=O)c1ccc2cc[nH]c2c1)C(=O)N[C@@H](Cc1ccccc1)C(N)=O
8.40,8.70,89,65,97,90,N=C(N)NCCC[C@@H](NC(=O)c1ccccc1-c1ccccc1)C(=O)N[C@@H](Cc1ccccc1)C(N)=O
6.85,7.06,,,,,NC(=O)[C@H](Cc1ccccc1)NC(=O)[C@H](CCCN=C(N)N)NC(=O)c1cccc2ccccc12
5.70,6.70,,,,,NC(=O)[C@@H](Cc1ccccc1)NC(=O)[C@@H](CCCN=C(N)N)NC(=O)c1ccccc1
6.69,6.97,11,5,85,60,COc1cccc(C(=O)N[C@@H](CCCNC(=N)N)C(=O)N[C@@H](Cc2ccccc2)C(N)=O)c1
6.64,7.82,74,18,86,46,N=C(N)NCCC[C@@H](NC(=O)C(c1ccccc1)c1ccccc1)C(=O)N[C@H](Cc1ccccc1)C(N)=O
7.33,6.92,,,,,NC(=O)[C@H](Cc1ccccc1)NC(=O)[C@H](CCCN=C(N)N)NC(=O)c1ccc2ccccc2n1
5.50,6.56,,,,,NC(=O)[C@@H](Cc1ccccc1)NC(=O)[C@@H](CCCN=C(N)N)NC(=O)Cc1ccccc1
6.81,8.30,,,,,NC(=O)[C@@H](Cc1ccccc1)NC(=O)[C@@H](CCCN=C(N)N)NC(=O)c1ccccc1-c1ccccc1
6.68,7.29,,,,,NC(=O)[C@@H](Cc1ccccc1)NC(=O)[C@@H](CCCN=C(N)N)NC(=O)C12CC3CC(CC(C3)C1)C2
6.85,7.54,85,21,100,60,N=C(N)NCCC[C@@H](NC(=O)C12CC3CC(CC(C3)C1)C2)C(=O)N[C@@H](Cc1ccccc1)C(N)=O
,,18,14,52,21,COc1ccc(CC(=O)N[C@@H](CCCNC(=N)N)C(=O)N[C@@H](Cc2ccccc2)C(N)=O)cc1
,,40,6,83,50,N=C(N)NCCC[C@@H](NC(=O)c1ccc(-c2ccccc2)cc1)C(=O)N[C@H](Cc1ccccc1)C(N)=O
6.38,6.78,,,,,NC(=O)[C@@H](Cc1ccccc1)NC(=O)[C@@H](CCCN=C(N)N)NC(=O)c1ccc(-c2ccccc2)cc1
,,26,19,100,59,N=C(N)NCCC[C@H](NC(=O)C1CCNCC1)C(=O)N[C@@H](Cc1ccccc1)C(N)=O (H-[Inp]-Arg-Phe-NH2)
,,15,0,78,40,N=C(N)NCCC[C@H](NC(=O)c1cccc(C(=O)c2ccccc2)c1)C(=O)N[C@@H](Cc1ccccc1)C(N)=O
,,26,35,86,80,N=C(N)NCCC[C@H](NC(=O)c1cc2ccccc2[nH]1)C(=O)N[C@@H](Cc1ccccc1)C(N)=O
,,25,12,77,67,N=C(N)NCCC[C@H](NC(=O)c1ccc(Cl)c(Cl)c1)C(=O)N[C@@H](Cc1ccccc1)C(N)=O
,,19,14,77,54,COc1ccc(C(=O)N[C@@H](CCCNC(=N)N)C(=O)N[C@@H](Cc2ccccc2)C(N)=O)cn1
,,42,19,89,50,COc1cccc(CC(=O)N[C@@H](CCCNC(=N)N)C(=O)N[C@@H](Cc2ccccc2)C(N)=O)c1
,,11,9,64,23,N=C(N)NCCC[C@H](NC(=O)c1cccnc1)C(=O)N[C@@H](Cc1ccccc1)C(N)=O
6.93,9.10,84,18,95,58,N=C(N)NCCC[C@@H](NC(=O)/C=C/c1ccccc1)C(=O)N[C@@H](Cc1ccccc1)C(N)=O

pKi [1],pKi [2],inhibition [3] [%],inhibition [4] [%],inhibition [5] [%],inhibition [6] [%],SMILES
,,43,4,78,30,N=C(N)NCCC[C@@H](NC(=O)Cc1ccccc1)C(=O)N[C@H](Cc1ccccc1)C(N)=O
,,0,17,61,38,N=C(N)NCCC[C@H](NC(=O)Cc1ccc(O)c(O)c1)C(=O)N[C@@H](Cc1ccccc1)C(N)=O
,,42,3,92,23,N=C(N)NCCC[C@H](NC(=O)c1ccco1)C(=O)N[C@@H](Cc1ccccc1)C(N)=O
,,18,2,74,21,N=C(N)NCCC[C@H](NC(=O)c1ccncc1)C(=O)N[C@@H](Cc1ccccc1)C(N)=O
,,35,38,91,48,CC(C)(C)C(=O)N[C@@H](CCCNC(=N)N)C(=O)N[C@@H](Cc1ccccc1)C(N)=O
,,40,10,96,19,COc1ccccc1C(=O)N[C@@H](CCCNC(=N)N)C(=O)N[C@@H](Cc1ccccc1)C(N)=O
7.03,8.70,,,,,NC(=O)[C@H](Cc1ccccc1)NC(=O)[C@@H](CCCN=C(N)N)NC(=O)c1ccc(-c2ccccc2)cc1
,9.05,,,,,NC(=O)[C@H](Cc1ccccc1)NC(=O)[C@H](CCCN=C(N)N)NC(=O)CCN1c2ccccc2Sc2ccccc21
,,40,37,90,82,N=C(N)NCCC[C@H](NC(=O)c1cccc2ccccc12)C(=O)N[C@@H](Cc1ccccc1)C(N)=O
,,57,11,100,57,N=C(N)NCCC[C@@H](NC(=O)C12CC3CC(CC(C3)C1)C2)C(=O)N[C@H](Cc1ccccc1)C(N)=O
,,44,13,100,33,CCCCCCCCCCC(=O)N[C@@H](CCCNC(=N)N)C(=O)N[C@@H](Cc1ccccc1)C(N)=O
8.05,8.22,,,,,NC(=O)[C@H](Cc1ccccc1)NC(=O)[C@@H](CCCN=C(N)N)NC(=O)c1cccc(-c2ccccc2)c1
,,35,21,100,64,COc1ccc(/C=C/C(=O)N[C@@H](CCCNC(=N)N)C(=O)N[C@@H](Cc2ccccc2)C(N)=O)cc1
,,18,1,71,21,COc1ccc(C(=O)N[C@@H](CCCNC(=N)N)C(=O)N[C@@H](Cc2ccccc2)C(N)=O)cc1
,,14,4,68,43,N=C(N)NCCC[C@H](NC(=O)c1ccc(C(=O)c2ccccc2)cc1)C(=O)N[C@@H](Cc1ccccc1)C(N)=O
6.37,7.46,,,,,NC(=O)[C@H](Cc1ccccc1)NC(=O)[C@@H](CCCN=C(N)N)NC(=O)Cc1ccccc1
,,32,0,76,26,N=C(N)NCCC[C@H](NC(=O)Cc1ccc(O)cc1)C(=O)N[C@@H](Cc1ccccc1)C(N)=O
,,8,0,70,28,COc1ccc(CC(=O)N[C@@H](CCCNC(=N)N)C(=O)N[C@@H](Cc2ccccc2)C(N)=O)cc1OC
7.37,7.66,,,,,NC(=O)[C@H](Cc1ccccc1)NC(=O)[C@H](CCCN=C(N)N)NC(=O)C12CC3CC(CC(C3)C1)C2
,,26,5,82,52,N=C(N)NCCC[C@H](NC(=O)Cc1ccccc1)C(=O)N[C@@H](Cc1ccccc1)C(N)=O
6.23,9.49,,,,,NC(=O)[C@H](Cc1ccccc1)NC(=O)[C@H](CCCN=C(N)N)NC(=O)c1ccccc1-c1ccccc1
,,3,6,41,27,N=C(N)NCCC[C@H](NC(=O)/C=C/c1cccnc1)C(=O)N[C@@H](Cc1ccccc1)C(N)=O
,,19,4,77,34,COc1ccc(/C=C/C(=O)N[C@@H](CCCNC(=N)N)C(=O)N[C@@H](Cc2ccccc2)C(N)=O)cc1OC
,,100,31,100,59,N=C(N)NCCC[C@H](NC(=O)CCN1c2ccccc2Sc2ccccc21)C(=O)N[C@@H](Cc1ccccc1)C(N)=O
